# Laboratory results published in ChEMBL document CHEMBL3826909, “Quinoxaline-based inhibitors of Ebola and Marburg VP40 egress” (Bioorg Med Chem Lett, 2016).
# Active and inactive are the calls of the source. The calls are words filed in the database; no cut-off is given here.
# Columns and labels:
# [1] = molecular target: T1, Matrix protein VP40 (Lake Victoria marburgvirus (strain Ravn-87) (MARV) (Marburg virus (strainKenya/Ravn/1987))) (UniProt Q1PDC8); test: Inhibition of Marburg virus VP40 PPxY L-domain motif expressed in HEK293T cells assessed as reduction in VLP budding at 0.1 uM relative to control; format: cell-based; settings: HEK-293T
# T1 sequence (whole entry): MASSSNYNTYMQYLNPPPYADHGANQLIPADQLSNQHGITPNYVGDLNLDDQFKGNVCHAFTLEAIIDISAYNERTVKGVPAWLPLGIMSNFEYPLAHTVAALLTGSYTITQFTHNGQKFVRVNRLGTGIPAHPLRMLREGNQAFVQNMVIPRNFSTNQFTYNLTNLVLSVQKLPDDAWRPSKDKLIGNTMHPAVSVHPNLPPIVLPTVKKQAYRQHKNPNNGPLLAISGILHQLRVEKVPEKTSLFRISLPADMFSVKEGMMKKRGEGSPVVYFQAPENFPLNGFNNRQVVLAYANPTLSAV
# [2] = molecular target: T1, Matrix protein VP40 (Lake Victoria marburgvirus (strain Ravn-87) (MARV) (Marburg virus (strainKenya/Ravn/1987))); test: Inhibition of Marburg virus VP40 PPxY L-domain motif expressed in HEK293T cells assessed as reduction in VLP budding at 0.03 uM relative to control; format: cell-based; settings: HEK-293T
# Liver microsome [3] = test: Half life in human liver microsomes; format: ADME
# Cytochrome P450 3A4 = Cytochrome P450 3A4 (Homo sapiens, UniProt P08684); test: Inhibition of CYP3A4 (unknown origin) using midazolam as substrate; format: ADME
# [4] = molecular target: T1, Matrix protein VP40 (Lake Victoria marburgvirus (strain Ravn-87) (MARV) (Marburg virus (strainKenya/Ravn/1987))); test: Inhibition of Marburg virus VP40 PPxY L-domain motif expressed in HEK293T cells assessed as reduction in VLP budding at 0.3 uM relative to control; format: cell-based; settings: HEK-293T
# [5] = Half life in mouse liver microsomes; format: ADME
# Liver microsome [6] = test: Intrinsic clearance in human liver microsomes assessed per mg of protein; format: ADME
# [7] = molecular target: T1, Matrix protein VP40 (Lake Victoria marburgvirus (strain Ravn-87) (MARV) (Marburg virus (strainKenya/Ravn/1987))); test: Inhibition of Marburg virus VP40 PPxY L-domain motif expressed in HEK293T cells assessed as reduction in VLP budding at 1 uM relative to control; format: cell-based; settings: HEK-293T
# [8] = molecular target: T1, Matrix protein VP40 (Lake Victoria marburgvirus (strain Ravn-87) (MARV) (Marburg virus (strainKenya/Ravn/1987))); test: Inhibition of Marburg virus VP40 PPxY L-domain motif expressed in HEK293T cells assessed as reduction in VLP budding at 30 nM after 24 hrs by Western blot analysis relative to control; format: cell-based; settings: HEK-293T
# [9] = Cytotoxicity against human HEK293T cells assessed as cell viability at 10 uM after 24 hrs by MTT assay relative to control; format: cell-based, HEK-293T; settings: read-out: Activity
# [10] = Cytotoxicity against human HEK293T cells assessed as cell viability at 0.01 uM after 24 hrs by MTT assay relative to control; format: cell-based, HEK-293T; settings: read-out: Activity
# [11] = molecular target: T1, Matrix protein VP40 (Lake Victoria marburgvirus (strain Ravn-87) (MARV) (Marburg virus (strainKenya/Ravn/1987))); test: Inhibition of Marburg virus VP40 PPxY L-domain motif-Nedd4 interaction in HEK293T cells coexpressing NYFP-Nedd4 and CYFP-mVP40 at 0.1 uM by inverted confocal microscopy based bimolecular complementation assay; format: cell-based; settings: HEK-293T
# [12] = Cytotoxicity against African green monkey Vero E6 cells assessed as cell viability at 1 uM after 24 hrs by MTT assay relative to control; format: cell-based; settings: chlorocebus sabaeus, read-out: Activity
# [13] = Cytotoxicity against African green monkey Vero E6 cells assessed as cell viability at 0.01 uM after 24 hrs by MTT assay relative to control; format: cell-based; settings: chlorocebus sabaeus, read-out: Activity
# [14] = Cytotoxicity against African green monkey Vero E6 cells assessed as cell viability at 10 uM after 24 hrs by MTT assay relative to control; format: cell-based; settings: chlorocebus sabaeus, read-out: Activity
# [15] = Cytotoxicity against human HEK293T cells assessed as cell viability at 1 uM after 24 hrs by MTT assay relative to control; format: cell-based, HEK-293T; settings: read-out: Activity
# [16] = Cytotoxicity against African green monkey Vero E6 cells assessed as cell viability at 0.1 uM after 24 hrs by MTT assay relative to control; format: cell-based; settings: chlorocebus sabaeus, read-out: Activity
# [17] = molecular target: T1, Matrix protein VP40 (Lake Victoria marburgvirus (strain Ravn-87) (MARV) (Marburg virus (strainKenya/Ravn/1987))); test: Inhibition of Marburg virus VP40 PPxY L-domain motif expressed in HEK293T cells assessed as reduction in VLP budding at 100 nM after 24 hrs by Western blot analysis; format: cell-based; settings: HEK-293T
# [18] = Cytotoxicity against human HEK293T cells assessed as cell viability at 0.1 uM after 24 hrs by MTT assay relative to control; format: cell-based, HEK-293T; settings: read-out: Activity
# Chain of Cytochrome P450 3A4 (P08684 whole entry): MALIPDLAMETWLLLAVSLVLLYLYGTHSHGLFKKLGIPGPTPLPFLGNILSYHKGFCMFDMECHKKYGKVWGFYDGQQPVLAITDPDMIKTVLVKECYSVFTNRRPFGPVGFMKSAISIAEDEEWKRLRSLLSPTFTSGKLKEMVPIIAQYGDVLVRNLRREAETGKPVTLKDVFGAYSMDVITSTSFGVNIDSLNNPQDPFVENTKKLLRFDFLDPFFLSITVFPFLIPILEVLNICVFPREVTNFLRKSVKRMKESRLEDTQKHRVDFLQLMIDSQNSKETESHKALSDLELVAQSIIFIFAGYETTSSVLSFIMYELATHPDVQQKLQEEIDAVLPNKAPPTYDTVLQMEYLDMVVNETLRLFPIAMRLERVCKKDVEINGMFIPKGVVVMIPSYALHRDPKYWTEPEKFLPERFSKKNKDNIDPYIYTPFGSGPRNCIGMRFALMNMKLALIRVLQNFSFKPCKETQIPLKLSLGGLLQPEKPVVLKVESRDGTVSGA
structure (smiles),measurement,setting,value
Cc1c(F)cccc1NC(=O)NC(=O)CSc1nc2ccccc2nc1C(F)(F)F,inhibition,[1],inactive
Cc1ccc(F)cc1NC(=O)NC(=O)CSc1nc2ccccc2nc1C,inhibition,[1],89%
Cc1ccc(C)c(NC(=O)NC(=O)CSc2nc3ccccc3nc2C)c1,inhibition,[2],68%
same,t1/2,Liver microsome [3],77.2 min
same,IC50,Cytochrome P450 3A4,> 33 µM
same,inhibition,[4],100%
same,t1/2,[5],1.9 min
same,Intrinsic clearance,Liver microsome [6],0.71 mL/min
Cc1ccc(NC(=O)NC(=O)CSc2nc3ccccc3nc2C)cc1C,inhibition,[2],29%
same,inhibition,[4],97%
Cc1nc2ccccc2nc1SCC(=O)NC(=O)NCc1ccccc1,inhibition,[1],29%
same,inhibition,[7],60%
Cc1ccc(NC(=O)NC(=O)COc2nc3ccccc3nc2C)cc1,inhibition,[1],70%
Cc1nc2ccccc2nc1SCC(=O)NC(=O)Nc1ccc(F)cc1,inhibition,[7],80%
O=C(CSc1nc2ccccc2nc1C(F)(F)F)NC(=O)Nc1ccccc1Cl,t1/2,Liver microsome [3],71.7 min
same,inhibition,[1],inactive
same,IC50,Cytochrome P450 3A4,> 33 µM
same,inhibition,[4],inactive
same,t1/2,[5],49.9 min
same,Intrinsic clearance,Liver microsome [6],0.77 mL/min
same,inhibition,[7],inactive
O=C(CSc1cnc2ccccc2n1)NC(=O)Nc1ccccc1F,inhibition,[7],inactive
Cc1nc2ccccc2nc1SCC(=O)NC(=O)Nc1ccc(Cl)cc1,inhibition,[1],82%
Cc1nc2ccccc2nc1SCC(=O)NC(=O)N(C)c1ccccc1,inhibition,[7],inactive
Cc1nc2ccccc2nc1SCC(=O)NC(=O)Nc1ccccn1,inhibition,[1],inactive
same,inhibition,[7],80%
CCc1nc2ccccc2nc1SCC(=O)NC(=O)Nc1cccc(F)c1C,t1/2,Liver microsome [3],31.3 min
same,inhibition,[1],inactive
same,inhibition,[4],inactive
same,t1/2,[5],54.8 min
same,inhibition,[7],67%
Cc1nc2ccccc2nc1SCC(=O)NC(=O)N1CCc2ccccc21,inhibition,[7],inactive
Cc1ccc(NC(=O)NC(=O)CSc2nc3ccccc3nc2C)nc1,inhibition,[1],96%
CCc1nc2ccccc2nc1SCC(=O)NC(=O)Nc1ccccc1Cl,inhibition,[1],inactive
Cc1nc2ccccc2nc1S(=O)(=O)CC(=O)NC(=O)Nc1ccc(F)cc1,inhibition,[7],inactive
Cc1cccnc1NC(=O)NC(=O)CSc1nc2ccccc2nc1C,inhibition,[1],45%
CCc1ccc(C)nc1NC(=O)NC(=O)CSc1nc2ccccc2nc1C,inhibition,[2],48%
Cc1ncccc1NC(=O)NC(=O)CSc1nc2ccccc2nc1C,inhibition,[1],41%
Cc1ccccc1NC(=O)NC(=O)CSc1nc2ccccc2nc1C,fold change (FC),[8],3
same,"viability at 24 h, 10 µM",[9],60.5%
same,inhibition,[2],83%
same,t1/2,Liver microsome [3],46.6 min
same,"viability at 24 h, 0.01 µM",[10],98.6%
same,inhibition,[1],98%
same,inhibition,[11],Active
same,IC50,Cytochrome P450 3A4,> 33 µM
same,"viability at 24 h, 1 µM",[12],71.2%
same,"viability at 24 h, 0.01 µM",[13],96.8%
same,"viability at 24 h, 10 µM",[14],61.7%
same,"viability at 24 h, 1 µM",[15],62.8%
same,"viability at 24 h, 0.1 µM",[16],92.3%
same,inhibition,[17],> 90%
same,"viability at 24 h, 0.1 µM",[18],71.7%
same,inhibition,[7],100%
Cc1ccncc1NC(=O)NC(=O)CSc1nc2ccccc2nc1C,inhibition,[1],85%
Cc1ccc(NC(=O)NC(=O)CSc2nc3ccccc3nc2C)cn1,inhibition,[1],87%
Cc1nc2ccccc2nc1SCC(=O)NC(=O)Nc1cc[nH]n1,inhibition,[7],inactive
Cc1nc2ccccc2nc1SCC(=O)NC(=O)Nc1ccccc1F,inhibition,[2],inactive
same,inhibition,[1],98%
same,inhibition,[4],100%
same,inhibition,[7],100%
